Results from patent publication US6372278B1, “Sweetener composition” (Ajinomoto Co., Inc., priority 1998, dated 2002).
Peptide text beside a SMILES is read from it.

Columns and labels:
[1] = Dissolution time in water, elution tester (Japanese Pharmacopoeia paddle method); format: physicochemical
Method: (Dissolution rate of raw (original) powders each from NM C-type crystals and APM, and a mixture thereof) A predetermined amount of the sample was introduced into 900 ml water (20° C.) in a 1-L elution tester (the Japanese Pharmacopoeia, Paddle method, 100 rpm) and its dissolution time was measured (end point was visually confirmed).
Specifically, 1 g of sample taken from each mixture consisting of NM C-type crystal raw powder (average particle size of about 100 μm) and APM raw powder (average particle size of about 15 μm, IB-type bundled crystals) at the predetermined various ratios (APM content (% by weight)) shown in Table 1 below, was weighed, and then measured for its dissolution time. For comparison, 1.00 g, 0.90 g, 0.50 g, 0.10 g, 0.03 g, and 0.005 g samples were taken from said NM raw powder, and then their dissolution times were determined in the same manner as above. For the same purpose, 1.00 g, 0.97 g, 0.90 g, 0.50 g, and 0.10 g samples were taken from said APM raw powder, and then their dissolution times were determined in the same manner. […]

[2] = in terms of weight ratio; cited from earlier work
[3] = 0.03 g sample alone in 900 ml water, 20° C., paddle 100 rpm
[4] = 0.10 g sample alone in 900 ml water, 20° C., paddle 100 rpm
[5] = 0.50 g sample alone in 900 ml water, 20° C., paddle 100 rpm
[6] = 0.51 g of NM alone (same sweetness as 1 g mixture containing 50% APM)
[7] = 0.90 g sample alone in 900 ml water, 20° C., paddle 100 rpm
[8] = 1.00 g sample alone in 900 ml water, 20° C., paddle 100 rpm, end point visual

Row | Dissolution time ([1]; 0.005 g sample alone in 900 ml water, 20° C., paddle 100 rpm) [min] | Dissolution time [1, 3] [min] | Dissolution time [1, 4] [min] | Dissolution time ([1]; 0.5 g alone, 900 ml water, 20° C.) [min] | Dissolution time [1, 5] [min] | Dissolution time [1, 6] | Dissolution time [1, 7] [min] | Dissolution time [1, 8] [min] | Dissolution time ([1]; 0.97 g sample alone in 900 ml water, 20° C., paddle 100 rpm) [min] | Compound | sweetness strength [2]
1 | 4 | 30 | 40 | 55 | 55 | about 55 minutes | 60 | 62 |  | COC(=O)[C@H](Cc1ccccc1)NC(=O)[C@H](CC(=O)O)NCCC(C)(C)C [NM C-type crystals, N-{N-(3,3-dimethylbutyl)-L-α-aspartyl}-L-phenylalanine 1-methyl ester] | 
2 |  |  |  |  |  |  |  |  |  | COC(=O)[C@H](Cc1ccccc1)NC(=O)[C@H](CC(=O)O)NCCC(C)(C)C [NM] | about 10,000 times that of sucrose
3 |  | 10 | 16 |  | 35 | about 35 minutes | 40 | 42 |  | COC(=O)[C@H](Cc1ccccc1)NC(=O)[C@H](CC(=O)O)NCCC(C)(C)C [NM A-type crystals, N-{N-(3,3-dimethylbutyl)-L-α-aspartyl}-L-phenylalanine 1-methyl ester] | 
4 |  |  | 10 |  | 20 |  | 27 | 30 | 29 | COC(=O)[C@H](Cc1ccccc1)NC(=O)[C@@H](N)CC(=O)O [APM, Aspartame] (H-Asp-Phe-OMe) | about 200 times that of sucrose
